According to patent US20100068204A1, “4-ARYLOXYQUINOLIN-2(1H)-ONES AS MTOR KINASE AND PI3 KINASE INHIBITORS, FOR USE AS ANTI-CANCER AGENTS” (Wyeth, priority 2008, published 2010):
Where two headings read alike, the source gives them in different places.

Columns and labels:
[1] = tested on: LNCap prostate tumor cells; assay: In vitro cell growth assay (MTS), LNCap; type: cell-based, human; conditions: three days after drug treatment
Procedure, shortened: (§1)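 Tumor cells plated ~3000/well; inhibitors in DMSO added one day later (final DMSO 0.25%). After three days of treatment, viable cell density read by MTS conversion, absorbance at 490 nm. Effect expressed relative to untreated control growth.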

PI3Kα = PI3Kα (Homo sapiens, UniProt P42336); assay: PI3Kα fluorescence polarization assay; type: biochemical; conditions: 20 μM PIP2, 25 μM ATP
Chain of PI3Kα (P42336 whole entry, species assumed): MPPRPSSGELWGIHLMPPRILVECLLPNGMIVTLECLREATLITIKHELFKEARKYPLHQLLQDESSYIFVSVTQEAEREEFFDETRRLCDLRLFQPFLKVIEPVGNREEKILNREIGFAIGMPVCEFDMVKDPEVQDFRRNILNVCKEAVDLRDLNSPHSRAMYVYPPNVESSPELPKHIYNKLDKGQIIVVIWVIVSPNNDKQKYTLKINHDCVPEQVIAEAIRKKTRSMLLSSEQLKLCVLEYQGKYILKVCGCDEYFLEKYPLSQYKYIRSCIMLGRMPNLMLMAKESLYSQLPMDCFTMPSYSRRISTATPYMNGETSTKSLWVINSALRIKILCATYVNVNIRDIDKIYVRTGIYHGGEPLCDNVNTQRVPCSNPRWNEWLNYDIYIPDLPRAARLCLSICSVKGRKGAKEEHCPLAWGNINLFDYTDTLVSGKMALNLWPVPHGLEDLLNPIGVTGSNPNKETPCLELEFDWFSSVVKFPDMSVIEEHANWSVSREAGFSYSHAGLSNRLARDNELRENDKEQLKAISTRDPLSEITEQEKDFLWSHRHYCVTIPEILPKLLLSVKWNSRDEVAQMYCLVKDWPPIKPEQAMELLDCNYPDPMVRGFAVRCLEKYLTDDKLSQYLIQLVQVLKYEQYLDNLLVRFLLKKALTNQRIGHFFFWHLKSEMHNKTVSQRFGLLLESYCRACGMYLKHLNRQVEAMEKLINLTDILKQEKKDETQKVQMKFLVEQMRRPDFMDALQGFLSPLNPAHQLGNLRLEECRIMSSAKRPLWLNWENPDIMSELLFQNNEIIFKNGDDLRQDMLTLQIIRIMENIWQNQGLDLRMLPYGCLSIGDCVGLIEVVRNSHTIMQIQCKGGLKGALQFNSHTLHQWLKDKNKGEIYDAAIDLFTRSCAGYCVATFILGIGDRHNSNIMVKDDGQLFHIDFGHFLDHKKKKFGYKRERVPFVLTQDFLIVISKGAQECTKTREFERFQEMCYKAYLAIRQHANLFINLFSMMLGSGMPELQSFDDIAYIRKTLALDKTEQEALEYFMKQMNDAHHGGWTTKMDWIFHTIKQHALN
Chain of PI3Kα (P27986 whole entry partner, species assumed): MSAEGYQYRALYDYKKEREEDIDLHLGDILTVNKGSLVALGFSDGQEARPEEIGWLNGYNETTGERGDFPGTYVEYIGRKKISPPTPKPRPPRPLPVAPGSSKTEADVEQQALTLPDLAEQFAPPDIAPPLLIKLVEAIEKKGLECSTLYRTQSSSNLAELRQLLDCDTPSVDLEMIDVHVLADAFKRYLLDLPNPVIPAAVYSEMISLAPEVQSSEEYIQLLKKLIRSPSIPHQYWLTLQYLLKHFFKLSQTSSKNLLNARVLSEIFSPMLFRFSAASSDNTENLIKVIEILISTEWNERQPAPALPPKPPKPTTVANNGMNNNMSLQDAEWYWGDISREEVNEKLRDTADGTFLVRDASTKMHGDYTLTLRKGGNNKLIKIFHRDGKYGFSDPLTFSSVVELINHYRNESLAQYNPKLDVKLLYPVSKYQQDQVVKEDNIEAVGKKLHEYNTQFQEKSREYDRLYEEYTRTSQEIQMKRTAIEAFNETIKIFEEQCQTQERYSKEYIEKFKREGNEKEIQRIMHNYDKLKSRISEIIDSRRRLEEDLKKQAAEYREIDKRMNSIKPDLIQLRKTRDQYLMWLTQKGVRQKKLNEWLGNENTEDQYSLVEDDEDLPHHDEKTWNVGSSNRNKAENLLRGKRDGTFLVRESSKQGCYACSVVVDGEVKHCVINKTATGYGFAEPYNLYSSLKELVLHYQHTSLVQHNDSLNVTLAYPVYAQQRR
Procedure, shortened: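 Kinase reaction in 20 mM HEPES pH 7.5, 2 mM MgCl2, 0.05% CHAPS with final 20 μM diC8-PIP2 and 25 μM ATP, 30-60 min at room temperature. Stopped with 10 nM TAMRA-labelled probe plus 2.5 uM GST-murine GRP; fluorescence polarization read after 90-110 minutes.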

human TOR (FLAG-TOR) = human TOR (FLAG-TOR) (Homo sapiens, UniProt P42345); assay: mTOR enzyme assay (DELFIA format, purified enzyme); type: biochemical; conditions: 800 ng/ml FLAG-TOR, 100 μM ATP, 1.25 μM His6-S6K; read-out: mTOR Kinase IC50
[2] = tested on: MDA468 breast tumor cells; assay: In vitro cell growth assay (MTS), MDA468; type: cell-based, human; conditions: three days after drug treatment
Procedure, shortened: as §1

[3] = single- and repeat-dosing; cited from earlier work
[4] = tested on: human tumor xenograft models; conditions: cited from earlier work
[5] = tested on: acute lymphoblastic leukemia xenograft; conditions: in vivo; cited from earlier work
mTOR = mTOR (Homo sapiens, UniProt P42345); conditions: read-out: mTOR IC50; literature; mTOR complexes / mTOR enzymes; cited from earlier work

| SMILES | IC50 ([1]; Homo sapiens, LNCaP, 72 h) | IC50 (PI3Kα) | IC50 (human TOR (FLAG-TOR)) | IC50 ([2]; Homo sapiens, 72 h) | also measured |
| --- | --- | --- | --- | --- | --- |
| O=C(Cc1cccs1)Nc1ccc2[nH]c(=O)cc(Oc3ccccc3)c2c1 | 22 µM | 0.383 µM | 14.5 µM | 35 µM |  |
| CN(C)CC(=O)Nc1ccc2[nH]c(=O)cc(Oc3ccccc3)c2c1 | > 60 µM | > 10 µM | > 20 µM | > 60 µM |  |
| COC(=O)c1cc(Oc2cc(=O)[nH]c3ccccc23)ccc1OC | 7.9 µM | > 10 µM | 1.28 µM | > 60 µM |  |
| O=c1cc(Oc2cccc3ccccc23)c2ccccc2[nH]1 | > 60 µM | > 10 µM | 0.23 µM | > 60 µM |  |
| O=c1cc(Oc2ccccc2C(F)(F)F)c2ccccc2[nH]1 | > 60 µM | 0.308 µM | 1.65 µM | > 60 µM |  |
| O=c1cc(Oc2ccccc2)c2cc(Cl)ccc2[nH]1 | 13 µM | 5.14 µM | 6.75 µM | > 60 µM |  |
| O=c1cc(Oc2cccc(OCc3ccccc3)c2)c2ccccc2[nH]1 [Example 57, 4-[3-(benzyloxy)phenoxy]quinolin-2(1H)-one] |  |  |  |  | melting point: 262 to 265 °C |
| O=c1cc(Oc2cccnc2)c2ccccc2[nH]1 [Example 119, 4-(pyridin-3-yloxy)quinolin-2(1H)-one] |  |  |  |  | melting point: 242 to 243 °C |
| O=c1cc(Oc2ccccn2)c2ccccc2[nH]1 [Example 137, 4-(pyridin-2-yloxy)quinolin-2(1H)-one] |  |  |  |  | melting point: > 360 °C |
| CN1CCN(c2cccc(Oc3cc(=O)[nH]c4ccccc34)c2)CC1 [Example 140, 4-[3-(4-methylpiperazin-1-yl)phenoxy]quinolin-2(1H)-one] |  |  |  |  | melting point: 218 to 221 °C |
| CN(Cc1cccnc1)c1cccc(Oc2cc(=O)[nH]c3ccccc23)c1 [Example 161, 4-{3-[methyl(pyridin-3-ylmethyl)amino]phenoxy}quinolin-2(1H)-one] |  |  |  |  | melting point: 187 to 193 °C (dec.) |
| O=C1NC(=O)/C(=C/c2ccc3nccc(-c4ccncc4)c3c2)S1 [GSK-1059615] |  |  |  |  | exposure in phase 1 clinical study [3]: lack of sufficient exposure |
| Cn1c(=O)n(-c2ccc(C(C)(C)C#N)cc2)c2c3cc(-c4cnc5ccccc5c4)ccc3ncc21 [NVP-BEZ-235, 2-methyl-2-(4-(3-methyl-2-oxo-8-(quinolin-3-yl)-2,3-dihydro-1H-imidazo[4,5-c]quinolin-1-yl)phenyl)propanenitrile] |  |  |  |  | activity in human tumor xenograft models ([4]; prostrate (PC-3) and glioblastoma (U-87)): demonstrated activity |
| Oc1cccc(-c2nc(N3CCOCC3)c3oc4ncccc4c3n2)c1 [PI103, 3-(4-(4-morpholinyl)pyrido[3′,2′:4,5]furo[3,2-d]pyrimidin-2-yl)phenol] |  |  |  |  | activity in human tumor xenograft models ([4]; I.P. dosing in mice, U87MG, PC3, MDA-MB-468, MDA-MB-435, HCT 116, SKOV3, IGROV-1): demonstrated activity |
| CO[C@H]1C[C@@H]2CC[C@@H](C)[C@@](O)(O2)C(=O)C(=O)N2CCCC[C@H]2C(=O)O[C@H]([C@H](C)C[C@@H]2CC[C@@H](OC(=O)C(C)(CO)CO)[C@H](OC)C2)CC(=O)[C@H](C)/C=C(\C)[C@@H](O)[C@@H](OC)C(=O)[C@H](C)C[C@H](C)/C=C/C=C/C=C/1C [Torisel] |  |  |  |  | activity in NOS/SCID xenograft mouse model of acute lymphoblastic leukemia [5]: active |
| FC(F)c1nc2ccccc2n1-c1nc(N2CCOCC2)nc(N2CCOCC2)n1 [ZSTK474, 2-(2-difluoromethylbenzoimidazol-1-yl)-4,6-dimorpholino-1,3,5-triazine] |  |  |  |  | tumor growth in mouse human xenograft cancer models ([4]; chronic oral administration, 400 mg/kg, A549, PC-3, WiDr): completely inhibited growth; IC50 (mTOR): > 10 µM |
| Cc1cccc(Oc2cc(=O)[nH]c3ccccc23)c1 [drawing 249] |  | 0.736 µM | 0.24 µM |  | IC50 [1]: 7.5 µM; IC50 [2]: 20 µM |
| Cc1cccc(Oc2cc(=O)[nH]c3ccccc23)c1 [drawing 313] |  | > 10 µM | 0.5 µM | 40 µM | IC50 [1]: 60 µM |
| CN(Cc1cccnc1)c1cccc(Oc2cc(=O)[nH]c3ccccc23)c1 [drawing 372] | 13 µM | 1.96 µM | 0.42 µM | 20 µM |  |
| O=c1cc(Oc2cccnc2)c2ccccc2[nH]1 [drawing 388] | > 60 µM | > 10 µM | 1.16 µM | > 60 µM |  |

More lines, main results first:

| IC50 ([1]; Homo sapiens, LNCaP, 72 h) | IC50 (PI3Kα) | IC50 (human TOR (FLAG-TOR)) | IC50 ([2]; Homo sapiens, 72 h) | SMILES | also measured |
| --- | --- | --- | --- | --- | --- |
| 12 µM | > 10 µM | 3.95 µM | 35 µM | NCc1ccc(Oc2cc(=O)[nH]c3ccccc23)cc1 |  |
| 1.05 µM | > 10 µM | 1.08 µM | 8 µM | O=c1cc(Oc2ccc(-c3ccc(NCCN4CCOCC4)nc3)cc2)c2ccccc2[nH]1 |  |
| 3.8 µM | > 10 µM | 0.08 µM | 10 µM | CN(C)CCCOc1ccc(-c2cccc(Oc3cc(=O)[nH]c4ccccc34)c2)cn1 |  |
| 2.2 µM | > 10 µM | 0.14 µM | 10 µM | O=c1cc(Oc2cccc(-c3cnn(CCN4CCOCC4)c3)c2)c2ccccc2[nH]1 |  |
| 0.8 µM | 9 µM | 0.56 µM | 1.2 µM | CN1CCN(c2cc(-c3ccc(Oc4cc(=O)[nH]c5ccccc45)cc3)ccn2)CC1 |  |
| > 60 µM | 11 µM | 0.54 µM | > 60 µM | COc1ccc(Oc2cc(=O)[nH]c3ccccc23)cc1 |  |
| 18 µM | 1.59 µM | 0.6 µM | > 60 µM | O=c1cc(Oc2ccc(F)cc2)c2ccccc2[nH]1 |  |
| 18 µM | 4.17 µM | 1.15 µM | > 60 µM | Cc1ccc(Oc2cc(=O)[nH]c3ccccc23)cc1 |  |
| 5.3 µM | 11 µM | 0.13 µM |  | O=c1cc(Oc2cccc(NCc3cccnc3Cl)c2)c2ccccc2[nH]1 [drawing 207] | IC50 [2]: > 60 µM |
|  | > 10 µM | 0.15 µM |  | O=c1cc(Oc2cccc(NCc3cccnc3Cl)c2)c2ccccc2[nH]1 [drawing 217] | IC50 [1]: 4.2 µM; IC50 [2]: 10 µM |
